Measured values: ChEMBL document CHEMBL1133344, “SAR studies of 2-o-substituted-benzoyl- and 2-alkanoyl-cyclohexane-1,3-diones as inhibitors of 4-hydroxyphenylpyruvate dioxygenase” (Bioorg Med Chem Lett, 2000)

Molecular target: T1, 4-hydroxyphenylpyruvate dioxygenase (Sus scrofa, UniProt Q02110)
Assay: Inhibition of 4-hydroxyphenylpyruvate dioxygenase of purified pig liver by enol-borate method

T1 sequence (Q02110 whole entry): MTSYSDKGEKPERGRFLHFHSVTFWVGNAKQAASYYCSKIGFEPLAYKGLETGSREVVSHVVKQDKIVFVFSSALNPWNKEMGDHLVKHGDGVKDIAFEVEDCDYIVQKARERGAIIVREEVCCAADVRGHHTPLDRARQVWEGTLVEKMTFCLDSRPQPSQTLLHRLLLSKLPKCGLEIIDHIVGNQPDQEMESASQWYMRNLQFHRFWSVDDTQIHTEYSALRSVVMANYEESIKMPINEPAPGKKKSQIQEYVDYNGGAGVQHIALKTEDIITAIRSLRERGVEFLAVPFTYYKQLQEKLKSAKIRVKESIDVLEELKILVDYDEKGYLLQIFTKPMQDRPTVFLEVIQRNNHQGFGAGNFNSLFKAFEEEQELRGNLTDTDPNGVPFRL

Structure (SMILES)	IC50 [µM]
O=C1CCCC(=O)C1C(=O)c1ccccc1Br	0.56
O=C1CCCC(=O)C1C(=O)c1ccc(C(F)(F)F)cc1[N+](=O)[O-] [NITISINONE]	0.04
O=C1CCCC(=O)C1C(=O)C1CC1	6
Cc1ccccc1C(=O)C1C(=O)CCCC1=O	3.75
O=C1CCCC(=O)C1C(=O)c1ccccc1C(F)(F)F	0.25
O=C1CCCC(=O)C1C(=O)c1ccccc1[N+](=O)[O-]	0.16
CCC(=O)C1C(=O)CCCC1=O	17.8

More lines, now with the values ahead:

IC50 [µM]	Structure (SMILES)
0.76	O=C1CCCC(=O)C1C(=O)c1ccccc1I
11.7	COc1ccccc1C(=O)C1C(=O)CCCC1=O
365	O=C1CCCC(=O)C1C(=O)C1CCCCC1
0.5	O=C1CCCC(=O)C1C(=O)c1ccccc1Cl
93.3	CC(C)C(=O)C1C(=O)CCCC1=O
11.2	CC(=O)C1C(=O)CCCC1=O

Molecular target: T1, 4-hydroxyphenylpyruvate dioxygenase
Assay: In vitro inhibition of 4-hydroxyphenylpyruvate dioxygenase obtained from purified pig liver by enol-borate method

IC50 [µM]	Structure (SMILES)
11.2	O=C1CCCC(=O)C1C(=O)c1ccccc1
